Data on four molecules can be found in patent US6872852B2, “Polyamine analogues as cytotoxic agents” (MediQuest Therapeutics, Inc., priority 2000, dated 2005).

Series [1] has as its system MDA-MB-231 cells. Description: Cytotoxicity, MTS assay after 3 days. The format is cell-based, human. Conditions: for pIC50: 3 days incubation, MTS, determined by the inventors, read-out: IC50 against MDA cells.
Protocol: After a total of 3-days, cell growth was evaluated by MTS assay (Promega).
Another series has as its system SK-MEL-5 cells. Briefly: Cytotoxicity, MTS assay after 3 days. The series is classed as cell-based. The settings on record: 3 days incubation, read-out: IC50 against SK-MEL-5 cells. On the procedure:
Briefly, cells were plated at 1500 (SK-MEL-5) or 5000 (MDA) cells/well in a 96-well plate and allowed to adhere for 1 day. The indicated analogues were added and the cells were incubated for 3 days, when cell growth was evaluated by MTS assay (Promega). Vertical axis represents cell number as a % of no drug treatment controls. Additionally, significant activity was seen against PC-3 cells (see FIGS. 4 and 11).
A general note: Formazan colour is commonly taken as a measure of viable cells.

Series [2] deals with PC-3 cells. Briefly: Cytotoxicity / cell growth, MTS assay. Conditions: for inhibition of growth of PC-3 cells: 3 days; for pIC50: determined by the present inventors. The series is classed as cell-based, human. On the procedure: Involvement of the pro-apoptotic caspase-3 enzyme in the action of OR 1313 is shown by the experiment represented in FIG. 10. Briefly, PC-3 cells were plated at 1000 cells/well in a 96-well plate and allowed to adhere for 1 day. 10 μM of ORI 1313 and 0, 5, or 15 μM Z-DEVD-fmk, a caspase inhibitor, were added and the cells were incubated for 3 days. Cell growth was evaluated by MTS assay (Promega). Vertical axis represents cell number as a % of no drug treatment controls.

The subject of the next series is MDA cells. Briefly: NCI 60-cell line screen. The format is cell-based, human. Conditions: determined by NCI. On the procedure:
(§1) ORI 1313 and ORI 1327 were evaluated by the National Cancer Institute (NCI) with a 60-cell line screen.

In series [3] the test system is PC-3 cells. Description: NCI 60-cell line screen. The series is classed as cell-based, human. Conditions: determined by NCI. On the procedure: as §1
Another series deals with melanoma cell lines. Description: NCI 60-cell line screen. The format is cell-based. Conditions: 8 melanoma lines. On the procedure:
as §1

Series [4] relates to MDA-MB-231 cells. Briefly: Cell cycle analysis by FACS (propidium iodide), apoptotic fraction. The series is classed as cell-based, human. The protocol: Cell cycle analysis was performed using fluorescent activated cell sorter (FACS) analysis on polyamine analogue treated MDA cells (see FIGS. 7A-7C). Briefly, MDA-MB-231 cells were grown in the presence of ORI 1313 or ORI 1327 for various times then fixed with ethanol and stained with propidium iodide. Cells were analyzed by FACS, with the areas on the histograms designating DNA content and cell cycle stage: M1, G1; M2, S; M3, G2/M; M4, <2N (apoptotic cells).
(In general: In flow cytometry, cells or beads pass a laser one at a time.)

Series [5] has as its system MES-SA/Dx5 uterine sarcoma cell line. Description: Growth inhibition of multi-drug resistant cells, MTS assay. Conditions: inferred from parent vs MDR-1 expressing line. The series is classed as cell-based, human. The protocol: An unexpected observation made during the cellular characterization of ORI 1313 and ORI 1327 was their growth inhibitory activity against the multi-drug resistant (MDR) uterine sarcoma cell line, MES-SA/Dx5 (see FIGS. 8A and 8B). Briefly, cells were plated at 1000 cells/well in a 96-well plate and allowed to adhere for 1 day. The indicated analogue was added and the cells were incubated for 3 days when cell growth was evaluated by MTS assay (Promega). Vertical axis represents cell number as a % of no drug treatment controls
The MES-SA/Dx5 cell line was developed by selection on doxorubicin and over-expresses the mRNA of the multi-drug resistance gene (MDR-1). The cells are thus much less sensitive to drugs exported via P-glycoprotein (P-gp). See Harker, W. G. et al. Multi-drug (pleiotropic) resistance in doxorubicin-selected variants of the human sarcoma cell line MES-SA. Cancer Research, 1985, 45, 4091-4096. […] This will be particularly advantageous in situations involving target cells expressing MDR-1.

In series [6] the test system is cellular polyamine levels. Briefly: Intracellular polyamine levels by HPLC. Conditions: 11 hr treatment. The series is classed as cell-based. The protocol: To determine the effects of treatment with polyamine analogues on cellular polyamine levels, intracellular polyamine levels were measured by high performance liquid chromatography (HPLC) after 11 hr treatment with ORI 1313 (32 μM) or ORI 1327 (3 μM). […] This observation is consistent with the previous observations in the field.

The subject of the next series is cell growth. Description: Co-treatment experiments on analogue cytotoxicity. The format is cell-based. The settings on record: for effect of co-treatment with DFMO on results: 1 mM DFMO; for effect of co-treatment with putrescine on cytotoxic effects: 50-fold excess concentration of putrescine; for effect of co-treatment with ORI 1202 on inhibition of cell growth: polyamine transport inhibitor ORI 1202.

In series [7] the test system is putrescine uptake into MDA cells. Briefly: Inhibition of 3H-putrescine uptake. The series is classed as cell-based, human. The settings on record: read-out: Kiapp versus putrescine uptake into MDA cells.
In series [8] the test system is putrescine uptake into PC-3 cells. Briefly: Inhibition of 3H-putrescine uptake. The series is classed as cell-based, human. The settings on record: read-out: Kiapp versus putrescine uptake into PC-3 cells.
Series [9] concerns A375 human melanoma xenografts. Description: A375 human melanoma xenograft in nude mice. The series is classed as in vivo. For orientation: In xenograft studies the graft and the host belong to different species.
Protocol: ORI was tested in a melanoma tumor xenograft tumor models in BALB/c nude mice. […] The xenograft efficacy study would be performed with two drug concentrations. There were four groups of 10 mice. Treatment groups received the maximum tolerated dose (MTD) or ½ MTD of each analogue. […] A positive control group treated with dacarbazine DTIC (dosage of 180 mg/kg i.p. once per day for 5 days) was used to validate this tumor model system.
Female BALB/c nu/nu athymic mice weighing 20 grams were the animal host for the human xenografts. The method of administration was i.p. injections with 9 mM or 4 mM ORI 1313 once daily for the duration of the study (end point when control tumors reached 2000 mg). […] DITC was administered by i.p. injection once daily for 5 days. Treatment started when the tumors reach 5 mm×5 mm size (50 mg). The mouse weight and tumor size were measured twice weekly. The tumor measurements by calipers were then converted to mg tumor volume by the formula L^2×W/2. Once the control tumors reached 2000 mg both the control and treatment group mice were weighed, sacrificed and the tumors removed. The actual weights of tumors were then used to calculate the percent growth inhibition by each analogue using the formula: % growth inhibition=(mean treated tumor weight/mean control tumor weight×100)−100.
The test system of series [10] is A375 human melanoma cell line. Description: Cytotoxicity against A375 cell line. The series is classed as cell-based.
The test system of series [11] is BALB/c mice. Conditions: mouse, in vivo, ip.
Protocol: (§2) Chronic toxicities were evaluated by giving i.p. injections once daily for 5 consecutive days.
Series [12] has as its system BALB/c mice. The settings on record: mouse, in vivo, ip. The source holds these as a separate data set.
Protocol: as §2
Series [13] relates to BALB/c mice. Description: Acute toxicity, single i.p. injection.
Protocol: as §2
Series [14] has as its system BALB/c mice. Description: Chronic toxicity, i.p. once daily for 5 consecutive days.
Protocol: as §2
Series [15] deals with [1,4-14C]-putrescine uptake. Conditions: Frydman et al.; cited from earlier work.
Series [16] deals with putrescine uptake into MDA cells. Conditions: read-out: Km for uptake into MDA cells; previously shown; cited from earlier work.

SMILES strings stand for the structures. pIC50, pKi: −log10 of the molar value.

As usually defined, the pIC50 is the IC50 on a negative log10 scale, so that one unit is a factor of ten. Take `c1ccc(CNCCCNCc2ccccc2)cc1` [N^1, N^3-dibenzyl analog of 1,3-diaminopropane, reference compound]: the pIC50 in the series on MDA-MB-231 cells [1] is 4.54.
On to `c1ccc2c(CNCCCCNCc3cccc4ccccc34)cccc2c1` [ORI 1313], for which the pIC50 in the series with SK-MEL-5 cells was 5.39; in the series on MDA-MB-231 cells [1], 4.92; with PC-3 cells [2], 4.70; with MDA cells, 5.64; in the series with PC-3 cells [3] it was 4.95; in series [10], 5.39. In the series with MDA-MB-231 cells [1], the “increase over N1,N4-dibenzylputrescine in potency of cytotoxic activity against MDA cells” value is 16 fold. Besides, the entries for the “inhibition of growth of PC-3 cells” value in the series with PC-3 cells [2] (10 μM ORI 1313 + 5 μM Z-DEVD-fmk), in the series on PC-3 cells [2] (10 μM ORI 1313 + 15 μM Z-DEVD-fmk) and with PC-3 cells [2] (10 μM ORI 1313 alone) were 19%, 10% and 46%, respectively. Further, the “effectiveness against melanoma cell lines tested” value in the series on melanoma cell lines is 6 of 8. The “<2N DNA content (apoptotic fraction)” value in the series on MDA-MB-231 cells [4] (32 μM, 11 hr treatment) is listed as 21%; with MDA-MB-231 cells [4] (32 μM, 24 hr treatment), 49%; in the series with MDA-MB-231 cells [4] (32 μM, 48 hr treatment) it was 30%. In addition, the “substrate for the P-gp multi-drug exporter” value in [5] is “not substrates”. Further, in series [6] (32 μM), the “effect on cellular polyamine levels” value is recorded as “no significant effects”. For the same molecule, the “effect of co-treatment with DFMO on results” value in the series on cell growth is on record as “did not alter”. The “effect of co-treatment with putrescine on cytotoxic effects” value in the series on cell growth was “did not block”. In the series on cell growth, the “effect of co-treatment with ORI 1202 on inhibition of cell growth” value is on record as “did not alter”. The pKi is 4.55 in series [7] and 4.62 in [8]. For the same molecule, in [9] (after 7 weeks of treatment), the “adverse findings in xenograft study” value was “transient skin ulceration and weight loss”. The molecule further returned a tumor growth inhibition in [9] (at 25 days, vs 5% dextrose control, i.p. once daily) of 36%. The “tolerability in xenograft study” value in series [9] (i.p. once daily, nude mice) is on record as “well tolerated up to 7 weeks”. The same molecule came in with a tumor growth delay in series [9] (vs 5% dextrose control, i.p. once daily) of 6.2 days. Moreover, the solubility result (dihydrochloride salt, in 5% DMSO) is “at least 40 mM”. Also, in the series with BALB/c mice [11], the “tolerated dose, acute” value amounted to 93 mg/kg. The “approximate maximum tolerated dosage” value in the series with BALB/c mice [12] is given as roughly 40 mg/kg. In addition, the “tolerated dose, chronic” value in the series on BALB/c mice [12] is 40 mg/kg. Further, the “dose that caused death, acute” value with BALB/c mice [13] worked out at 186 mg/kg. In the series with BALB/c mice [14], the “lethal dosage, chronic” value turned out to be 80 mg/kg.
Turning to `c1ccc(N(c2ccccc2)c2ccc(CNCCCCNCc3ccc(N(c4ccccc4)c4ccccc4)cc3)cc2)cc1` [ORI 1327], the negative-log IC50 (pIC50) in the series with SK-MEL-5 cells is 6.15; with MDA-MB-231 cells [1] it was 6.19; in the series on PC-3 cells [2], 6.19; in the series on MDA cells it was 8.30; with PC-3 cells [3] it was 6.09. Further, in the series on MDA-MB-231 cells [1], the “increase over N1,N4-dibenzylputrescine in potency of cytotoxic activity against MDA cells” value was found to be 295 fold. In addition, the “<2N DNA content (apoptotic fraction)” value with MDA-MB-231 cells [4] (3 μM, 11 hr treatment) was determined as 15%. Besides, the “substrate for the P-gp multi-drug exporter” value in series [5] is reported as “not substrates”. For the same molecule, the “effect on cellular polyamine levels” value in series [6] (3 μM) is “no significant effects”. Also, the “effect of co-treatment with DFMO on results” value with cell growth was “did not alter”. Also, the “effect of co-treatment with putrescine on cytotoxic effects” value with cell growth is on record as “did not block”. Moreover, in the series with cell growth, the “effect of co-treatment with ORI 1202 on inhibition of cell growth” value was “did not alter”. Also, the pKi in series [8] is 4.84. Further, the “solubility relative to lactate salt” value (dihydrochloride salt) is “less soluble”. Moreover, for the setting “hydroxypropyl-β-cyclodextrin, 45% w/v HβC in H2O”, the solution concentration produced came to 40 mM. Also, under “lactate salt, aqueous”, the maximum solubility was found to be 5000 µM. For the same molecule, the “tolerated dose, acute” value in the series with BALB/c mice [11] was 37 mg/kg. In the series with BALB/c mice [12], the “approximate maximum tolerated dosage” value was roughly 7.5 mg/kg. Moreover, the “tolerated dose, chronic” value with BALB/c mice [12] came to 7.5 mg/kg. Moreover, the “dose that caused death, acute” value in the series on BALB/c mice [13] was 75 mg/kg. The “lethal dosage, chronic” value in the series on BALB/c mice [14] was 30 mg/kg.
As usually defined, the Km is the concentration of substrate that gives half-maximal velocity. `NCCCCN` [Putrescine, 1,4-diaminobutane]: the “Kmapp, putrescine uptake” value in [15] was 5.2 ± 0.6 µM. Besides, the Km in series [16] was 12.4 µM.
